Drawing on patent US12516067B2, “Antagonists of the muscarinic acetylcholine receptor M4” (Vanderbilt University, priority 2020, dated 2026), this text covers remaining activity and IC50 for 19 molecules.

For this experiment, the target named is T1, Human M4 (Homo sapiens, UniProt P08173).
T1 construct: expressed in transfected cells; host or cells: CHO-K1 (ATCC), co-transfected with chimeric G protein Gqi5
T1 sequence (P08173 1-479): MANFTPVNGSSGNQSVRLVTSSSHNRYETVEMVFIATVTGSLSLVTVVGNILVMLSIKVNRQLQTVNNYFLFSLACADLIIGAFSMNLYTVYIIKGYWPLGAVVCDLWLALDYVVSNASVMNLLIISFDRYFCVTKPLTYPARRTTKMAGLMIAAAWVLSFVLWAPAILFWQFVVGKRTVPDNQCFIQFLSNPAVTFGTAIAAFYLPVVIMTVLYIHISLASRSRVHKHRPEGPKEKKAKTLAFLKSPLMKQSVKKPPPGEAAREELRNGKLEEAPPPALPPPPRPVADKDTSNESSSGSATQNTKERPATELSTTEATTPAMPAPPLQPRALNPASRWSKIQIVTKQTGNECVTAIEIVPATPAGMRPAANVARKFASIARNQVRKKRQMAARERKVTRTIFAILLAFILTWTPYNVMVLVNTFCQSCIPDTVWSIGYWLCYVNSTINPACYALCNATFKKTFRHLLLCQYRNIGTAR
The experiment can be described thus: mAChR M4 cell-based functional assay (calcium flux, decrease of EC80 acetylcholine response) in M4/Gqi5/CHO-K1 cells. To be noted: CHO-K1 cells with human M4 and Gqi5; for remaining activity at 30 µM: % ACh maximum at 30 μM, read-out: Human M4 Emin; for IC50: antagonist mode: concentration-dependent decrease of response to EC80 acetylcholine. How it is done: Human or rat M4 cDNA, along with the chimeric G protein Gqi5, were transfected into Chinese hamster ovary (CHO-K1) cells purchased from the American Type Culture Collection using Lipofectamine2000. M4/Gqi5/CHO cells were grown in Ham's F-12 medium containing 10% heat-inactivated fetal bovine serum (FBS), 20 mM HEPES, 500 μg/mL G418 sulfate, and 200 μg/mL Hygromycin B.
For high throughput measurement of agonist-evoked increases in intracellular calcium, CHO-K1 cells stably expressing muscarinic receptors were plated in growth medium lacking G418 and hygromycin at 15,000 cells/20 μL/well in Greiner 384-well black-walled, tissue culture (TC)-treated, clear-bottom plates (VWR). Cells were incubated overnight at 37° C. and 5% CO2. The next day, cells were washed using an ELX 405 (BioTek) with assay buffer; the final volume was then aspirated to 20 μL. Next, 20 μL of a 2.3 μM stock of Fluo-4/acetoxymethyl ester (Invitrogen, Carlsbad, CA), prepared as a 2.3 mM stock in DMSO and mixed in a 1:1 ratio with 10% (w/v) Pluronic F-127 and diluted in assay buffer, was added to the wells and the cell plates were incubated for 50 min at 37° C. and 5% CO2. Dye was removed by washing with the ELX 405 and the final volume was aspirated to 20 μL. Compound master plates were formatted in a 10 point concentration-response curve (CRC) format (1:3 dilutions) in 100% DMSO with a starting concentration of 10 or 1 mM using a BRAVO liquid handler (Agilent). Test compound CRCs were then transferred to daughter plates (240 nL) using the Echo acoustic plate reformatter (Labcyte, Sunnyvale, CA) and then diluted into assay buffer (40 μL) to a 2× stock using a Thermo Fisher Combi (Thermo Fisher Scientific, Waltham, MA).
Calcium flux was measured using the Functional Drug Screening System (FDSS) 6000 or 7000 (Hamamatsu Corporation, Tokyo, Japan) as an increase in the fluorescent static ratio. Compounds were applied to cells (20 μL, 2×) using the automated system of the FDSS at 2 seconds into the protocol and the data were collected at 1 Hz. At 143 s, 10 μL of an EC20 concentration of the muscarinic receptor agonist acetylcholine was added (5×), followed by the addition of 12 μL of an EC80 concentration of acetylcholine at the 268 s time point (5×). Agonist activity was analyzed as a concentration-dependent increase in calcium mobilization upon compound addition. Positive allosteric modulator activity was analyzed as a concentration-dependent increase in the EC20 acetylcholine response. Antagonist activity was analyzed as a concentration-dependent decrease in the EC80 acetylcholine response; for the purposes of the tables herein, an IC50 (inhibitory concentration 50) was calculated as a concentration-dependent decrease of the response elicited by an EC80 concentration of acetylcholine. Concentration-response curves were generated using a four-parameter logistical equation in XLFit curve fitting software (IDBS, Bridgewater, NJ) for Excel (Microsoft, Redmond, WA) or Prism (GraphPad Software, Inc., San Diego, CA) or the Dotmatics software platform (Dotmatics, Bishop's Stortford, UK).
Compounds were synthesized as described above. Activity (IC50 and Emin) was determined in the mAChR M4 cell-based functional assay as described above and the data are shown in Table 1.
On the technique in general: A change in cytosolic calcium serves as a functional read-out for many receptors and channels.

Take `Fc1cc(F)c(F)c(-c2ccc(NCc3csc4c3CCN(CC3CCOCC3)C4)nn2)c1` [A1, N-((6-((tetrahydro-2H-pyran-4-yl)methyl)-4,5,6,7-tetrahydrothieno[2,3-c]pyridin-3-yl)methyl)-6-(2,3,5-trifluorophenyl)pyridazin-3-amine]: the remaining activity at 30 µM came out at 3% and the IC50 is 595 nM.

Take `Fc1ccc(Cl)c(-c2ccc(NCc3csc4c3CCN(CC3CCOCC3)C4)nn2)c1` [A2, 6-(2-chloro-5-fluorophenyl)-N-((6-((tetrahydro-2H-pyran-4-yl)methyl)-4,5,6,7-tetrahydrothieno[2,3-c]pyridin-3-yl)methyl)pyridazin-3-amine]: the remaining activity at 30 µM worked out at 3% and the half-inhibitory concentration (IC50) worked out at 85.2 nM.

Regarding `Cn1cc2cc(-c3ccc(NCc4csc5c4CCN(CC4CCOCC4)C5)nn3)ccc2n1` [A3, 6-(2-methyl-2H-indazol-5-yl)-N-((6-((tetrahydro-2H-pyran-4-yl)methyl)-4,5,6,7-tetrahydrothieno[2,3-c]pyridin-3-yl)methyl)pyridazin-3-amine], the remaining activity at 30 µM stood at 9% and the half-maximal inhibitory concentration (IC50) was determined as 529 nM.

As for `Fc1ccc(F)c(-c2ccc(NCc3csc4c3CCN(CC3CCOCC3)C4)nn2)c1` [A4, 6-(2,5-difluorophenyl)-N-((6-((tetrahydro-2H-pyran-4-yl)methyl)-4,5,6,7-tetrahydrothieno[2,3-c]pyridin-3-yl)methyl)pyridazin-3-amine], the remaining activity at 30 µM stood at 4% and the half-maximal inhibitory concentration (IC50) turned out to be 420 nM.

Consider `Cc1ccc(F)cc1-c1ccc(NCc2csc3c2CCN(CC2CCOCC2)C3)nn1` [A5, 6-(5-fluoro-2-methylphenyl)-N-((6-((tetrahydro-2H-pyran-4-yl)methyl)-4,5,6,7-tetrahydrothieno[2,3-c]pyridin-3-yl)methyl)pyridazin-3-amine], for which the remaining activity at 30 µM was 5% and the half-inhibitory concentration (IC50) worked out at 77.3 nM.

As for `FC1(F)CCN(c2ccc(NCc3csc4c3CCN(CC3CCOCC3)C4)nn2)CC1` [A6, 6-(4,4-difluoropiperidin-1-yl)-N-((6-((tetrahydro-2H-pyran-4-yl)methyl)-4,5,6,7-tetrahydrothieno[2,3-c]pyridin-3-yl)methyl)pyridazin-3-amine], the remaining activity at 30 µM came to 7% and the IC50 came to 668 nM.

`c1ccc(-c2ccc(NCc3csc4c3CCN(CC3CCOCC3)C4)nn2)cc1` [A7, 6-phenyl-N-((6-((tetrahydro-2H-pyran-4-yl)methyl)-4,5,6,7-tetrahydrothieno[2,3-c]pyridin-3-yl)methyl)pyridazin-3-amine]: the remaining activity at 30 µM turned out to be 6% and the 50% inhibitory concentration (IC50) was determined as 477 nM.

Turning to `O=S1(=O)CCCCN1c1ccc(NCc2csc3c2CCN(CC2CCOCC2)C3)nn1` [A8, 2-(6-(((6-((tetrahydro-2H-pyran-4-yl)methyl)-4,5,6,7-tetrahydrothieno[2,3-c]pyridin-3-yl)methyl)amino)pyridazin-3-yl)-1,2-thiazinane 1,1-dioxide], the remaining activity at 30 µM turned out to be 11% and the IC50 turned out to be 1400 nM.

On to `Fc1ccc(Cl)c(-c2ccc(NCc3csc4c3CCN(CC3CCCCC3)C4)nn2)c1` [A9, 6-(2-chloro-5-fluorophenyl)-N-((6-(cyclohexylmethyl)-4,5,6,7-tetrahydrothieno[2,3-c]pyridin-3-yl)methyl)pyridazin-3-amine], for which the remaining activity at 30 µM was determined as 5% and the IC50 is 99.7 nM.

Regarding `CC(C)(C)CCN1CCc2c(CNc3ccc(-c4cc(F)ccc4Cl)nn3)csc2C1` [A10, 6-(2-chloro-5-fluorophenyl)-N-((6-(3,3-dimethylbutyl)-4,5,6,7-tetrahydrothieno[2,3-c]pyridin-3-y)methyl)pyridazin-3-amine], the remaining activity at 30 µM was determined as 4% and the IC50 came out at 84.7 nM.

For the molecule `Fc1ccc(Cl)c(-c2ccc(NCc3csc4c3CCN(Cc3ccccn3)C4)nn2)c1` [A11, 6-(2-chloro-5-fluorophenyl)-N-((6-(pyridin-2-ylmethyl)-4,5,6,7-tetrahydrothieno[2,3-c]pyridin-3-yl)methyl)pyridazin-3-amine], the remaining activity at 30 µM was 4% and the IC50 stood at 183 nM.

On to `Cc1ccc(CN2CCc3c(CNc4ccc(-c5cc(F)ccc5Cl)nn4)csc3C2)nc1` [A12, 6-(2-chloro-5-fluorophenyl)-N-((6-((5-methylpyridin-2-yl)methyl)-4,5,6,7-tetrahydrothieno[2,3-c]pyridin-3-yl)methyl)pyridazin-3-amine], for which the remaining activity at 30 µM was found to be 10% and the IC50 came to 1480 nM.

Regarding `OC1(CN2CCc3c(CNc4ccc(-c5cc(F)ccc5Cl)nn4)csc3C2)CCCCC1` [A13, 1-((3-(((6-(2-chloro-5-fluorophenyl)pyridazin-3-yl)amino)methyl)-4,7-dihydrothieno[2,3-c]pyridin-6(5H)-yl)methyl)cyclohexan-1-ol], the remaining activity at 30 µM came out at 4% and the concentration for half-maximal inhibition (IC50) was 276 nM.

For the molecule `CN(Cc1csc2c1CCN(CC1CCOCC1)C2)c1ccc(-c2cc(F)ccc2Cl)nn1` [A14, 6-(2-chloro-5-fluorophenyl)-N-methyl-N-((6-((tetrahydro-2H-pyran-4-yl)methyl)-4,5,6,7-tetrahydrothieno[2,3-c]pyridin-3-yl)methyl)pyridazin-3-amine], the remaining activity at 30 µM came to 7% and the half-inhibitory concentration (IC50) turned out to be 1680 nM.

With `[2H]C([2H])([2H])N(Cc1csc2c1CCN(CC1CCOCC1)C2)c1ccc(-c2cc(F)ccc2Cl)nn1` [A15, 6-(2-chloro-5-fluorophenyl)-N-(methyl-d3)-N-((6-((tetrahydro-2H-pyran-4-yl)methyl)-4,5,6,7-tetrahydrothieno[2,3-c]pyridin-3-yl)methyl)pyridazin-3-amine], the remaining activity at 30 µM worked out at 8% and the IC50 was 957 nM.

As to `[2H]C([2H])(C1CCOCC1)N1CCc2c(CNc3ccc(-c4cc(F)ccc4Cl)nn3)csc2C1` [A16, 6-(2-chloro-5-fluorophenyl)-N-((6-((tetrahydro-2H-pyran-4-yl)methyl-d2)-4,5,6,7-tetrahydrothieno[2,3-c]pyridin-3-yl)methyl)pyridazin-3-amine], the remaining activity at 30 µM was 5% and the half-inhibitory concentration (IC50) was found to be 46.5 nM.

`Fc1ccc(Cl)c(-c2ccc(NCc3cccc4c3CCN(CC3CCOCC3)C4)nn2)c1` [B1, 6-(2-chloro-5-fluorophenyl)-N-((2-((tetrahydro-2H-pyran-4-yl)methyl)-1,2,3,4-tetrahydroisoquinolin-5-yl)methyl)pyridazin-3-amine]: the remaining activity at 30 µM was determined as 6% and the IC50 stood at 356 nM.

On to `CC(C)(C)CCN1CCc2c(CNc3ccc(-c4cc(F)ccc4Cl)nn3)cccc2C1` [B2, 6-(2-chloro-5-fluorophenyl)-N-((2-(3,3-dimethylbutyl)-1,2,3,4-tetrahydroisoquinolin-5-yl)methyl)pyridazin-3-amine], for which the remaining activity at 30 µM is 6% and the IC50 turned out to be 98.9 nM.

Turning to `Fc1ccc(Cl)c(-c2ccc(NCc3cccc4c3CCN(CC3CCCCC3)C4)nn2)c1` [B3, 6-(2-chloro-5-fluorophenyl)-N-((2-(cyclohexylmethyl)-1,2,3,4-tetrahydroisoquinolin-5-y1)methyl)pyridazin-3-amine], the remaining activity at 30 µM is 6% and the 50% inhibitory concentration (IC50) was 251 nM.

One may read the IC50 as the concentration at which inhibition is half-maximal.
